Results: article PMC6336887, “Smallest near-infrared fluorescent protein evolved from cyanobacteriochrome as versatile tag for spectral multiplexing” (Nature Communications, 2019)

Experiments:
NpR3784 GAF domain = target: T1, NpR3784 GAF domain (Nostoc punctiforme, UniProt B2J457); experiment: near-infrared fluorescence of E. coli co-expressing heme oxygenase; format: cell-based; details: weak binding; BV produced in the cells
T1 construct: gene Npun_R3784

miRFP670nano = target: T2, miRFP670nano (Nostoc punctiforme, UniProt B2J457, V48M/F66C/M67V/Y68F/P72E/S82A/A89S/N92K/Q96R/T98R/I113Y/G123N/H128Y/N140I/N158H/C160L/L177Q/Q180V, form not given); experiment: X-ray crystal structure, […] A; format: binding; details: covalent thioether, Cys86 to C3^1 of ring A; crystals at pH 4.0; BV from co-expressed heme oxygenase
T2 construct: gene Npun_R3784; single GAF domain, N-terminal alpha1-helix removed, 147 residues, 17 kDa, N-terminal polyhistidine tag, E. coli LMG194 co-expressing heme oxygenase, monomer

- near-infrared fluorescence of E. coli co-expressing heme oxygenase (NpR3784 GAF domain): the GAF domain of NpR3784 CBCR
Compound: C=CC1=C(C)C(=Cc2[nH]c(C=C3N=C(C=C4NC(=O)C(C)=C4C=C)C(C)=C3CCC(=O)O)c(CCC(=O)O)c2C)NC1=O [biliverdin]
- X-ray crystal structure, 1.95 A (miRFP670nano): BV is covalently attached by a thioether bond between the conserved for CBCRs Cys86 residue
